From publication PMC11053136 (Nature Communications, 2024)
“Also recorded” adds a separate entry of the source.

Assays:
[1] = biological target: T1, PLY (Streptococcus pneumoniae, UniProt Q7ZAK5); assay: cell-based; assay type: cell-based
[2] = biological target: T2, wild-type PLY (Streptococcus pneumoniae, UniProt Q7ZAK5); assay: biochemical; assay type: binding
[3] = biological target: SARS-CoV2 main protease (Severe acute respiratory syndrome coronavirus 2, UniProt P0DTD1); assay type: biochemical
[4] = biological target: protein tyrosine phosphatase PTP1B (Homo sapiens, UniProt P18031); assay type: biochemical
[5] = biological target: perforin (Homo sapiens, UniProt P14222); assay type: cell-based
[6] = system: Streptococcus pneumoniae (S.pn.) D39Δcps; assay type: cell-based
[7] = system: K562 cells; conditions: 6 µM
[8] = biological target: T1, PLY
[9] = biological target: T2, wild-type PLY; assay: cell-based; assay type: cell-based
[10] = biological target: Perfringolysin O (PFO) (Clostridium perfringens, UniProt P0C2E9); assay: cell-based
Chain of Perfringolysin O (PFO) (P0C2E9 29-500 limits assumed): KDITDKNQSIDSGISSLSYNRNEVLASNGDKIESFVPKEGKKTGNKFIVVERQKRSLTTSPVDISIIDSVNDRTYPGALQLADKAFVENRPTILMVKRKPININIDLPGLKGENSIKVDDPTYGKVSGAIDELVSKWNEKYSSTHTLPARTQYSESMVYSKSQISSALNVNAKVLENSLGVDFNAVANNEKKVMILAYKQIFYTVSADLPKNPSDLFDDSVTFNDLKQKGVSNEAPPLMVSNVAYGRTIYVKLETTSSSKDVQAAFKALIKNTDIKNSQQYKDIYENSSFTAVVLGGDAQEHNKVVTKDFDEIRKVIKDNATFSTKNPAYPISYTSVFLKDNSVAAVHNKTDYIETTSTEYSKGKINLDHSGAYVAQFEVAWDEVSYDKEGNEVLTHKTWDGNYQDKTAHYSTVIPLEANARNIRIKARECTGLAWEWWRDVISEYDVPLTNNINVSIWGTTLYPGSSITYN

T2 sequence (Q7ZAK5 whole entry, looked up): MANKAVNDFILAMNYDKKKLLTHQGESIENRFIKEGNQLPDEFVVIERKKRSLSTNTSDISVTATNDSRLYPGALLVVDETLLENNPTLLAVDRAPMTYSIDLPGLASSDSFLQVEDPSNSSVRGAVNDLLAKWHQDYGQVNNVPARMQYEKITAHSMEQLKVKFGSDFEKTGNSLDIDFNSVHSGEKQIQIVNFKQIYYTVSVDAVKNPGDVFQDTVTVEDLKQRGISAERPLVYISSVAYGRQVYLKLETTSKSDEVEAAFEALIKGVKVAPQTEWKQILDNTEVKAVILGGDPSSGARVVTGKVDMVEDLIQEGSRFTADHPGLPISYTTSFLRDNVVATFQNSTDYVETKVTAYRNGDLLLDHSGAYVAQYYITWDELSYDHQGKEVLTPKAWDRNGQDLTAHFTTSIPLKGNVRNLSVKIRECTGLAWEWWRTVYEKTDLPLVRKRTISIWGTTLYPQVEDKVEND
T1 sequence (Q7ZAK5 whole entry, looked up): as above
Chain of protein tyrosine phosphatase PTP1B (P18031 whole entry): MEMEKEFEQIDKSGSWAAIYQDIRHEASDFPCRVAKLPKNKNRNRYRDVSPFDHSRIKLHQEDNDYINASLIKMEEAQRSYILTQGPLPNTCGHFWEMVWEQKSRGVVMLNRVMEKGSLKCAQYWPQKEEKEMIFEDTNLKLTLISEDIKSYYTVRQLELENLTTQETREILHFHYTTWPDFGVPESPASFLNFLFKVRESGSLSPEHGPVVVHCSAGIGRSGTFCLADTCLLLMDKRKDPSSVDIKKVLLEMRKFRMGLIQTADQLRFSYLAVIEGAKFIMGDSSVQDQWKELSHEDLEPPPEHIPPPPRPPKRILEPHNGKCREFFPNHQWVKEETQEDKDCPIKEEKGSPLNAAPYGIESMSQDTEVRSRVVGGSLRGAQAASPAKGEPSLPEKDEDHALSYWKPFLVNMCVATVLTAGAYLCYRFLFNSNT
Chain of perforin (P14222 22-555): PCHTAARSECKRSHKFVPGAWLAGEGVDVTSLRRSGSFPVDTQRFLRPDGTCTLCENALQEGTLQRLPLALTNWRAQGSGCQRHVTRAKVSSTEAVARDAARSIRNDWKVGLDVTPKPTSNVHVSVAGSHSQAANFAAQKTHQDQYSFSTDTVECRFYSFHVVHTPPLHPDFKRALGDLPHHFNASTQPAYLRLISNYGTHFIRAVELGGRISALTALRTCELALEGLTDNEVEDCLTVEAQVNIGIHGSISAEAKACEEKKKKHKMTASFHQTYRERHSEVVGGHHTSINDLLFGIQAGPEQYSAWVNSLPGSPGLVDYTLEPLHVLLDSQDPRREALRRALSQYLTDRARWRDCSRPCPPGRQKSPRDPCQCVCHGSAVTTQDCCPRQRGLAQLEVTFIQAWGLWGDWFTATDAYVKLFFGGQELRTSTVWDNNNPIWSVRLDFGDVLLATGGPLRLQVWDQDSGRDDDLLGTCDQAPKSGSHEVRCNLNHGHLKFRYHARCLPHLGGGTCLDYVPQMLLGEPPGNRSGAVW

## Cc1cc(C)cc(N2C(=O)NC(=O)/C(=C\c3ccc(-c4ccc(Cl)cc4Cl)o3)C2=O)c1 [PB-3]
[1]
  Inhibition of PLY-induced cellular damage, LDH assay (qualitative): significant concentration-dependent inhibition of PLY
  prevented cellular damage (LDH release): more than 95%
[1]; A549, read-out: inhibition of PLY in cellular experiments at 1 µM
  inhibition at 1 µM: ~20%
[1]; A549, read-out: inhibition of PLY in cellular experiments at 6 µM, 6 µM, after 24 h
  inhibition at 6 µM: > 90%
[2]
  Kd: 0.256 µM
  residence time: 36.2 min
[2]; read-out: koff (off-rate)
  koff: 0.00046 s⁻¹
[2]; read-out: kon (on-rate)
  kon: 1800 M⁻¹ s⁻¹
[3]
  Inhibition of SARS-CoV2 main protease: inactive; also recorded: without detecting inhibition
[4]
  Inhibition of PTP1B: inactive; also recorded: without detecting inhibition
[5]
  Inhibition of lysis of K562 cells by NK cells: did not inhibit
  reduction of median target cell lysis compared to DMSO control: 15.6%
[6]
  Survival of A549 cells infected with D39Δcps: almost entirely survived
  duration of activity in the cellular infection assays: about 4 h
[7]
  Cytotoxicity for K562 cells alone: not cytotoxic
[8]
  Effect of inhibitor alone on A549 cells: harmless to cells
  Protection of A549 cells from PLY (microscopy): effectively protected cells from PLY-associated cellular damage

## O=Cc1ccc(-c2ccc(Cl)cc2Cl)o1 [PB-3.1]
[9]
  PLY inhibition in the hemolysis assay (qualitative): no inhibitors; also recorded: did not inhibit PLY alone

## Cc1cc(C)cc(N2C(=O)CC(=O)NC2=O)c1 [PB-2.3]
[9]
  IC50 (95% CI), inhibition of hemolysis by wild-type PLY: Inactive
  PLY inhibition in the hemolysis assay (qualitative): no inhibitors; also recorded: did not inhibit PLY alone

## COc1ccc(C=C2C(=O)NC(=O)NC2=O)cc1COc1ccc(F)cc1F [PB-1]
[9]
  IC50: 38 ± 6 µM
  Inhibition of hemoglobin release, virtual hit screen: actively hindering hemoglobin release at all three concentrations; also recorded: displayed inhibition
[10]
  IC50: 4.6 µM
[1]
  Inhibition of PLY-induced cellular damage, LDH assay (qualitative): significant concentration-dependent inhibition of PLY
